Reference: patent US20250197343A1, “CATIONIC LIPID” (TAKEDA PHARMACEUTICAL COMPANY LIMITED, priority 2021, published 2025)
Where two headings read alike, the source gives them in different places.

Columns and labels:
[1] = tested on: ICrl:CD1 (ICR) mice; assay: Mouse bioluminescence imaging evaluation (Test Example 1); type: in vivo; conditions: Luc DNA-encapsulated lipid nanoparticles 10 mL/kg i.v. to ICR mice; IVIS total flux 15 minutes after luciferin i.p.
Outline: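 ICR mice received Luc DNA-encapsulated lipid nanoparticles i.v. (10 mL/kg), then luciferin 15 mg/mL i.p. (10 mL/kg). Ventral IVIS imaging under isoflurane 15 min after luciferin; total flux scored A (≥3.0E+07), B (1.0E+07 to <3.0E+07), C (<1.0E+07).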

[2] = Rate of encapsulation of Luc DNA in lipid nanoparticles; type: physicochemical; parameters: unit: %; conditions: Luc DNA-encapsulated lipid nanoparticles; cationic lipid:DPPC:cholesterol:GM-020=60:10.6:28:1.4 molar ratio
Outline: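 Luc DNA-LNPs (cationic lipid:DPPC:cholesterol:GM-020 = 60:10.6:28:1.4 molar) formed by microfluidic mixing with DNA in 10 mM MES pH 5.5, then dialyzed into PBS. RiboGreen fluorescence measured with and without Triton X-100; encapsulation rate is the encapsulated fraction of total nucleic acid.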

[3] = tested on: Huh-7 cells; assay: Evaluation of viability using Huh-7 cells (Test Example 2); type: cell-based
Procedure: Huh-7 cells were seeded in a 96-well plate, and PBS, the Luc DNA-encapsulated lipid nanoparticles obtained in the aforesaid Production Example by using the cationic lipids of the Examples shown in Table 3, or Luc DNA-encapsulated lipid nanoparticles for control which were obtained in the same manner as in the aforesaid Production Example except that a known lipid, MC3 (DLin-MC3-DMA) or ALC-0315, was used instead of the cationic lipids of the Examples were added thereto (final concentration: 0.1 μg/mL and 0.3 μg/mL), followed by evaluation of viability (CellTiter-Fluor Cell Viability Assay, Promega Corporation). Taking the viability of dead cell group as 0% and the viability of the PBS group as 100%, the viability of each of the lipid particle groups was calculated. Higher viability indicates higher safety of the lipid particles. When the cationic lipids of the Examples were used, an improvement in safety compared to the control groups of MC3 and ALC-0315 was observed.

[4] = Particle size of Luc DNA-encapsulated lipid nanoparticles; type: physicochemical; conditions: cationic lipid:DPPC:cholesterol:GM-020=60:10.6:28:1.4 molar ratio
Outline: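 LNPs of cationic lipid:DPPC:cholesterol:GM-020 (60:10.6:28:1.4 molar) encapsulating luciferase DNA, made by microfluidic mixing with DNA in 10 mM MES pH 5.5, dialysed into PBS, stored in 20% sucrose/PBS at −80 °C. Size by dynamic light scattering, reported as cumulant Z-average.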

[5] = Huh-7 cells, Luc DNA-encapsulated lipid nanoparticles, final concentration 0.1 μg/mL, PBS group = 100%, dead cell group = 0%
[6] = Huh-7 cells, Luc DNA-encapsulated lipid nanoparticles, final concentration 0.3 μg/mL, PBS group = 100%, dead cell group = 0%

SMILES | Luminescence [1] | Rate of encapsulation [2] | Viability 0.1 μg/ml (%) [3, 5] | Viability 0.3 μg/ml (%) [3, 6] | Particle size (nm) [4] | Viability 0.1 μg/ml (%) [3] | Viability 0.3 μg/ml (%) [3]
CCCCCCCOC(=O)CCCCC(=O)OCC(COC(=O)CCCCC(=O)OCCCCCCC)(COC(=O)CCCN(C)CCO)COC(=O)CC(CCCCC)CCCCC [Example 93, 1,1′-Diheptyl 6,6′-(2-[({4-[(2-hydroxyethyl)(methyl)amino]butanoyl}oxy)methyl]-2-{[(3-pentyloctanoyl)oxy]methyl}propane-1,3-diyl) dihexanedioate] | B (B represents luminescence of 1.0E+0.7 or more and less than 3.0E+07) | 94.8 | 105% | 101% | 145.6 nm | – | –
CCCCCC(CCCCC)CC(=O)OCC(COC(=O)CCCCC(=O)OCC(CCC)CCC)(COC(=O)CCCCC(=O)OCC(CCC)CCC)COC(=O)CCCN(C)C [Example 115, 1,1′-[2-({[4-(Dimethylamino)butanoyl]oxy}methyl)-2-{[(3-pentyloctanoyl)oxy]methyl}propane-1,3-diyl] 6,6′-bis(2-propylpentyl) dihexanedioate] | A (A represents luminescence of 3.0E+07 or more) | 95.7 | 110% | 100% | 109.6 nm | – | –
CCCCCCCOC(=O)CCCCC(=O)OCC(COC(=O)CCCCC(=O)OCCCCCCC)(COC(=O)CCCN(C)C)COC(=O)CC(CCC)CCCCCCC (centres unmarked) [Example 28, 1,1′-[2-({[4-(Dimethylamino)butanoyl]oxy}methyl)-2-{[(3-propyldecanoyl)oxy]methyl}propane-1,3-diyl] 6,6′-diheptyl dihexanedioate] | A (A represents luminescence of 3.0E+07 or more) | 94.9 | 113% | 110% | 137.3 nm | – | –
CCCCCCCCC(CCCCCC)C(=O)OCCCCCCN(CCCCO)CCCCCCOC(=O)C(CCCCCC)CCCCCCCC (centres unmarked) [ALC-0315, reference compound] | – | – | 89% | 68% | – | – | –
CCCCCC(CCCCC)COC(=O)CCC(=O)OCC(COC(=O)CCCN(C)C)(COC(=O)CCC(=O)OCC(CCCCC)CCCCC)COC(=O)CCC(=O)OCC(CCCCC)CCCCC [Example 37, 1,1′-{2-({[4-(Dimethylamino)butanoyl]oxy}methyl)-2-[({4-oxo-4-[(2-pentylheptyl)oxy]butanoyl}oxy)methyl]propane-1,3-diyl} 4,4′-bis(2-pentylheptyl) dibutanedioate] | A (A represents luminescence of 3.0E+07 or more) | 97.0 | 111% | 98% | 124.1 nm | – | –
CCCCCCCOC(=O)CCCCC(=O)OCC(COC(=O)CCCCC(=O)OCCCCCCC)(COC(=O)CCCN(C)C)COC(=O)CC(CCCCC)CCCCC [Example 13, 1,1′-[2-({[4-(Dimethylamino)butanoyl]oxy}methyl)-2-{[(3-pentyloctanoyl)oxy]methyl}propane-1,3-diyl] 6,6′-diheptyl dihexanedioate] | A (A represents luminescence of 3.0E+07 or more) | 96.3 | 112% | 105% | 136.5 nm | – | –
CCCCC/C=C\C/C=C\CCCCCCCCC(CCCCCCCC/C=C\C/C=C\CCCCC)OC(=O)CCCN(C)C [MC3, reference compound] | – | – | 97% | 49% | – | – | –
CCCCCCCCCOC(=O)CCCCC(=O)OCC(COC(=O)CCCCC(=O)OCCCCCCCCC)(COC(=O)CCCCC(=O)OCCCCCCCCC)COC(=O)CCCN(C)C [Example 41, 1,1′-[2-({[4-(Dimethylamino)butanoyl]oxy}methyl)-2-({[6-(nonyloxy)-6-oxohexanoyl]oxy}methyl)propane-1,3-diyl] 6,6′-dinonyl dihexanedioate] | B (B represents luminescence of 1.0E+0.7 or more and less than 3.0E+07) | 80.3 | 111% | 101% | 138.0 nm | – | –
CCCCCCCOC(=O)CCCCC(=O)OCC(COC(=O)CCCCN(C)C)(COC(=O)CC(CCCCC)CCCCC)COC(=O)CC(CCCCC)CCCCC [Example 18, 2-({[5-(Dimethylamino)pentanoyl]oxy}methyl)-3-[(3-pentyloctanoyl)oxy]-2-{[(3-pentyloctanoyl)oxy]methyl}propyl heptyl hexanedioate] | A (A represents luminescence of 3.0E+07 or more) | 96.6 | 110% | 106% | 138.9 nm | – | –
CCCCCCCCCCOC(=O)CCCCC(=O)OCC(COC(=O)CCCN(C)C)(COC(=O)CC(CCCCC)CCCCC)COC(=O)CC(CCCCC)CCCCC [Example 51, Decyl 2-({[4-(dimethylamino)butanoyl]oxy}methyl)-3-[(3-pentyloctanoyl)oxy]-2-{[(3-pentyloctanoyl)oxy]methyl}propyl hexanedioate] | B (B represents luminescence of 1.0E+0.7 or more and less than 3.0E+07) | 98.2 | 104% | 78% | 83.9 nm | – | –
CCCCCC(CCCCC)OC(=O)CCC(=O)OCC(COC(=O)CCCN(C)C)(COC(=O)CCC(=O)OC(CCCCC)CCCCC)COC(=O)CCC(=O)OC(CCCCC)CCCCC [Example 39, 1,1′-{2-({[4-(Dimethylamino)butanoyl]oxy}methyl)-2-[({4-oxo-4-[(undecan-6-yl)oxy]butanoyl}oxy)methyl]propane-1,3-diyl} 4,4′-diundecan-6-yl dibutanedioate] | B (B represents luminescence of 1.0E+0.7 or more and less than 3.0E+07) | 98.5 | – | – | 135.2 nm | 113% | 94%
CCCCCCCCCCOC(=O)CCCCC(=O)OCC(COC(=O)CCCCC(=O)OCCCCCCCCCC)(COC(=O)CCCN(C)C)COC(=O)CC(CCCCC)CCCCC [Example 45, 1,1′-Didecyl 6,6′-[2-({[4-(dimethylamino)butanoyl]oxy}methyl)-2-{[(3-pentyloctanoyl)oxy]methyl}propane-1,3-diyl] dihexanedioate] | A (A represents luminescence of 3.0E+07 or more) | 95.6 | 108% | 103% | 119.0 nm | – | –
CCCCCCCCC(C(=O)OC)C(=O)OCC(COC(=O)CCCN(C)C)(COC(=O)CC(CCCCC)CCCCC)COC(=O)C(CCCCCCCC)C(=O)OC (centres unmarked) [Example 132, 1,1′-[2-({[4-(Dimethylamino)butanoyl]oxy}methyl)-2-{[(3-pentyloctanoyl)oxy]methyl}propane-1,3-diyl] 3,3′-dimethyl bis(octylpropanedioate)] | A (A represents luminescence of 3.0E+07 or more) | 96.5 | 95% | 94% | 129.2 nm | – | –
CCCCCCCOC(=O)CCCCC(=O)OCC(COC(=O)CCCCC(=O)OCCCCCCC)(COC(=O)CCCN(C)C)COC(=O)C(CCCCC)CCCCC [Example 83, 1,1′-[2-({[4-(Dimethylamino)butanoyl]oxy}methyl)-2-{[(2-pentylheptanoyl)oxy]methyl}propane-1,3-diyl] 6,6′-diheptyl dihexanedioate] | B (B represents luminescence of 1.0E+0.7 or more and less than 3.0E+07) | 92.9 | – | – | 148.7 nm | – | –
CCCCCC(CCCCC)CC(=O)OCC(COC(=O)CCCCCCCC(=O)OC)(COC(=O)CCCCCCCC(=O)OC)COC(=O)CCCN(C)C [Example 35, 1,1′-[2-({[4-(Dimethylamino)butanoyl]oxy}methyl)-2-{[(3-pentyloctanoyl)oxy]methyl}propane-1,3-diyl] 9,9′-dimethyl dinonanedioate] | B (B represents luminescence of 1.0E+0.7 or more and less than 3.0E+07) | 96.1 | – | – | 95.1 nm | – | –
